pIC50: −log10 of the molar value.

For 22 compounds, IC50 results are on record in patent US12590091B2, “1H-pyrrolo[3,2-C]pyridine and 1H-pyrrolo[2,3-C]pyridine derivatives as TLR9 inhibitors for the treatment of fibrosis” (BRISTOL-MYERS SQUIBB COMPANY, priority 2020, dated 2026).

The target of this test is T1, human TLR8 (Homo sapiens, UniProt Q9NR97).
T1 construct: host or cells: HEK-Blue cells
T1 sequence (Q9NR97 27-1041): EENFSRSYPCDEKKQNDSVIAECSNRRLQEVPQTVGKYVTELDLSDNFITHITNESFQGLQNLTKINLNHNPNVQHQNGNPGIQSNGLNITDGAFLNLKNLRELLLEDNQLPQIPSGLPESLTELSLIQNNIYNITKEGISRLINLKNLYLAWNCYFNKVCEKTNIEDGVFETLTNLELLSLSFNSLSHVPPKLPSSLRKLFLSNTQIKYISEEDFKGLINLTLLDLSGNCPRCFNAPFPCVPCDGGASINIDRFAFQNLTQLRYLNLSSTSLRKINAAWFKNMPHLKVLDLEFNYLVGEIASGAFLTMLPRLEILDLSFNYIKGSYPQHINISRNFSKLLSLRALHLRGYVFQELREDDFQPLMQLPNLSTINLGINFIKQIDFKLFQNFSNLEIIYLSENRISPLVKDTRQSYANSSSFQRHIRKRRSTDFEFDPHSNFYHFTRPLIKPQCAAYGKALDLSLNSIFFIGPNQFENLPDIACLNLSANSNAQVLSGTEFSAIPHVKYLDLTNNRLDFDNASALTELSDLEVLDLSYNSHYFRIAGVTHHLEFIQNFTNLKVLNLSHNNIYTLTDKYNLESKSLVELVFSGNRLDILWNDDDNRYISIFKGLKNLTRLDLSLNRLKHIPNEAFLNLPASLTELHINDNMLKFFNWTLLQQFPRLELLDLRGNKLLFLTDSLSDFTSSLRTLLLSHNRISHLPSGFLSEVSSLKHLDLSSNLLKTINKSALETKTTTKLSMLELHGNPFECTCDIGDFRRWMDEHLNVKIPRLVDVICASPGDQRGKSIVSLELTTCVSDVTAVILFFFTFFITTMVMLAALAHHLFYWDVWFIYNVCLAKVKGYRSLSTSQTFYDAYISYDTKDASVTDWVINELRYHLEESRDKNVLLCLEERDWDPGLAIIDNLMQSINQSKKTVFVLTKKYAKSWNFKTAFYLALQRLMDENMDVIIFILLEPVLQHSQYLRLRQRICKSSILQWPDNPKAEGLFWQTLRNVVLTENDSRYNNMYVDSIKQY
The experiment in a line: TLR8 inhibition reporter assay (HEK-Blue cells, SEAP reporter). As to conditions: HEK-Blue cells overexpressing human TLR8, stimulated with R848 15.9 μM, 22 hour incubation. The format is cell-based. Here is the method: TLR7/8/9 Inhibition Reporter Assays
HEK-Blue™-cells (Invivogen) overexpressing human TLR7, TLR8 or TLR9 receptors were used for screening inhibitors of these receptors using an inducible SEAP (secreted embryonic alkaline phosphatase) reporter gene under the control of the IFN-β minimal promoter fused to five NF-κB and AP-1-binding sites. Briefly, cells are seeded into Greiner 384 well plates (15000 cells per well for TLR7, 20,000 for TLR8 and 25,000 for TLR9) and then treated with test compounds in DMSO to yield a final dose response concentration range of 0.05 nM-50 μM. After a 30 minute compound pre-treatment at room temperature, the cells are then stimulated with a TLR7 ligand (gardiquimod at a final concentration of 7.5 μM), TLR8 ligand (R848 at a final concentration of 15.9 μM) or TLR9 ligand (ODN2006 at a final concentration of 5 nM) to activate NF-κB and AP-1 which induce the production of SEAP. After a 22 hour incubation at 37° C., 5% CO2, SEAP levels are determined with the addition of HEK-Blue™ Detection reagent (Invivogen), a cell culture medium that allows for detection of SEAP, according to manufacturer's specifications. The percent inhibition is determined as the % reduction in the HEK-Blue signal present in wells treated with agonist plus DMSO alone compared to wells treated with a known inhibitor.
A general note: A reporter such as luciferase makes a cellular process visible.
For `COc1ccc(-c2cc3cnc(-c4ccc(N5CCN(C(=O)c6ccccc6)CC5)cc4)cc3n2C)cc1OC` [Example 29, (4-(4-(2-(3,4-dimethoxyphenyl)-1-methyl-1H-pyrrolo[3,2-c]pyridin-6-yl)phenyl)piperazin-1-yl)(phenyl)methanone], the pIC50 is 5.09. The compound `COc1ccc(-c2cc3cnc(-c4ccc(N5CCN(C(C)C)CC5)nc4)cc3n2C)cc1OC` [Example 31, 2-(3,4-dimethoxyphenyl)-6-(6-(4-isopropylpiperazin-1-yl)pyridin-3-yl)-1-methyl-1H-pyrrolo[3,2-c]pyridine] had a pIC50 of 5.77.

As to `COc1ccc(-c2c(C)n(C)c3cnc(-c4ccc(N5CCN(C(C)C)CC5)cc4)cc23)cc1OC` [Example 32, 3-(3,4-dimethoxyphenyl)-5-(4-(4-isopropylpiperazin-1-yl)phenyl)-1,2-dimethyl-1H-pyrrolo[2,3-c]pyridine], the pIC50 was < 4.30.

For `COc1ccc(-c2c(C)n(C)c3cnc(-c4ccc(N5CCN(CCC(C)(C)O)CC5)cc4)cc23)cc1OC` [Example 33, 4-(4-(4-(3-(3,4-dimethoxyphenyl)-1,2-dimethyl-1H-pyrrolo[2,3-c]pyridin-5-yl)phenyl)piperazin-1-yl)-2-methylbutan-2-ol], the pIC50 was < 4.30. Under `Cc1nc(-c2ccc(N3CCN(CC(C)C)CC3)cc2)cc2c1cc(-c1ccc(S(C)(=O)=O)cc1)n2C` [Example 34, 6-(4-(4-isobutylpiperazin-1-yl)phenyl)-1,4-dimethyl-2-(4-(methylsulfonyl)phenyl)-1H-pyrrolo[3,2-c]pyridine] stands < 4.30; under `Cc1nc(-c2ccc(N3CCN(C4CCOCC4)CC3)cc2)cc2c1cc(-c1ccc(S(C)(=O)=O)cc1)n2C` [Example 35, 1,4-dimethyl-2-(4-(methylsulfonyl)phenyl)-6-(4-(4-(tetrahydro-2H-pyran-4-yl)piperazin-1-yl)phenyl)-1H-pyrrolo[3,2-c]pyridine], < 4.60; under `Cc1nc(-c2ccc(N3CCN(CCCO)CC3)cc2)cc2c1cc(-c1ccc(S(C)(=O)=O)cc1)n2C` [Example 36, 3-(4-(4-(1,4-dimethyl-2-(4-(methylsulfonyl)phenyl)-1H-pyrrolo[3,2-c]pyridin-6-yl)phenyl)piperazin-1-yl)propan-1-ol], < 4.60. On to `Cc1nc(-c2ccc(N3CCN(C4CCOC4)CC3)cc2)cc2c1cc(-c1ccc(S(C)(=O)=O)cc1)n2C` (stereo not shown) [Example 37, 1,4-dimethyl-2-(4-(methylsulfonyl)phenyl)-6-(4-(4-(tetrahydrofuran-3-yl)piperazin-1-yl)phenyl)-1H-pyrrolo[3,2-c]pyridine], for which the pIC50 is < 4.60. Under `COCCN1CCN(c2ccc(-c3cc4c(cc(-c5ccc(S(C)(=O)=O)cc5)n4C)c(C)n3)cc2)CC1` [Example 38, 6-(4-(4-(2-methoxyethyl)piperazin-1-yl)phenyl)-1,4-dimethyl-2-(4-(methylsulfonyl)phenyl)-1H-pyrrolo[3,2-c]pyridine] stands 4.93; under `Cc1nc(-c2ccc(C3CCN(CCCO)CC3)cc2)cc2c1cc(-c1ccc(S(C)(=O)=O)cc1)n2C` [Example 41, 3-(4-(4-(1,4-Dimethyl-2-(4-(methylsulfonyl)phenyl)-1H-pyrrolo[3,2-c]pyridin-6-yl)phenyl)piperidin-1-yl)propan-1-ol], < 4.78. Compound `Cc1nc(-c2cc(F)c(N3CCNCC3)cc2F)cc2c1cc(-c1ccc(S(C)(=O)=O)cc1)n2C` [Example 43, 6-(2,5-Difluoro-4-(piperazin-1-yl)phenyl)-1,4-dimethyl-2-(4-(methylsulfonyl)phenyl)-1H-pyrrolo[3,2-c]pyridine] showed a pIC50 of 5.57. As to `Cc1nc(-c2ccc(CN3CCN(CC(C)(C)O)CC3)cc2)cc2c1cc(-c1ccc(S(C)(=O)=O)cc1)n2C` [Example 44, 1-(4-(4-(1,4-Dimethyl-2-(4-(methylsulfonyl)phenyl)-1H-pyrrolo[3,2-c]pyridin-6-yl)benzyl)piperazin-1-yl)-2-methylpropan-2-ol], the pIC50 was 5.92. Turning to `Cc1nc(-c2ccc(N3CCN(CCCO)CC3)cc2)cc2c1cc(-c1ccc(S(=O)(=O)C3CC3)cc1)n2C` [Example 47, 3-(4-(4-(2-(4-(cyclopropylsulfonyl)phenyl)-1,4-dimethyl-1H-pyrrolo[3,2-c]pyridin-6-yl)phenyl)piperazin-1-yl)propan-1-ol], the pIC50 was < 4.60.

With `COCCN1CCN(c2ccc(-c3cc4c(cc(-c5ccc(S(=O)(=O)C6CC6)cc5)n4C)c(C)n3)cc2)CC1` [Example 48, 2-(4-(cyclopropylsulfonyl)phenyl)-6-(4-(4-(2-methoxyethyl)piperazin-1-yl)phenyl)-1,4-dimethyl-1H-pyrrolo[3,2-c]pyridine], the negative logarithm of the IC50 (pIC50) is < 4.60. On to `CC(C)CN1CCN(c2ccc(-c3cc4c(cn3)cc(-c3ccc(S(C)(=O)=O)cc3)n4C)cc2)CC1` [Example 53, 6-(4-(4-isobutylpiperazin-1-yl)phenyl)-1-methyl-2-(4-(methylsulfonyl)phenyl)-1H-pyrrolo[3,2-c]pyridine], for which the pIC50 was < 4.30. To `CC(C)N1CCN(c2ccc(-c3cc4c(cn3)cc(-c3ccc(S(C)(=O)=O)cc3)n4C)cc2)CC1` [Example 54, 6-(4-(4-isopropylpiperazin-1-yl)phenyl)-1-methyl-2-(4-(methylsulfonyl)phenyl)-1H-pyrrolo[3,2-c]pyridine] belongs < 4.30; to `Cc1nc(-c2ccc(N3CCN(CCCO)CC3)c(F)c2F)cc2c1cc(-c1ccc(S(C)(=O)=O)cc1)n2C` [Example 55, 3-(4-(4-(1,4-dimethyl-2-(4-(methylsulfonyl)phenyl)-1H-pyrrolo[3,2-c]pyridin-6-yl)-2,3-difluorophenyl)piperazin-1-yl)propan-1-ol], < 4.30. Turning to `Cc1nc(-c2cc(F)c(N3CCN(CCCO)CC3)cc2F)cc2c1cc(-c1ccc(S(C)(=O)=O)cc1)n2C` [Example 56, 3-(4-(4-(1,4-dimethyl-2-(4-(methylsulfonyl)phenyl)-1H-pyrrolo[3,2-c]pyridin-6-yl)-2,5-difluorophenyl)piperazin-1-yl)propan-1-ol], the pIC50 was 4.88. Under `Cc1nc(-c2ccc(CN3CCN(CC(C)C)CC3)cc2)cc2c1cc(-c1ccc(S(C)(=O)=O)cc1)n2C` [Example 57, 6-(4-((4-isobutylpiperazin-1-yl)methyl)phenyl)-1,4-dimethyl-2-(4-(methylsulfonyl)phenyl)-1H-pyrrolo[3,2-c]pyridine] stands 5.12; under `Cc1nc(-c2ccc(CN3CCN(CCCO)CC3)cc2)cc2c1cc(-c1ccc(S(C)(=O)=O)cc1)n2C` [Example 58, 3-(4-(4-(1,4-dimethyl-2-(4-(methylsulfonyl)phenyl)-1H-pyrrolo[3,2-c]pyridin-6-yl)benzyl)piperazin-1-yl)propan-1-ol], 4.75. As for `Cc1nc(-c2ccc(CN3CCC(C)(O)CC3)cc2)cc2c1cc(-c1ccc(S(C)(=O)=O)cc1)n2C` [Example 59, 1-(4-(1,4-dimethyl-2-(4-(methylsulfonyl)phenyl)-1H-pyrrolo[3,2-c]pyridin-6-yl)benzyl)-4-methylpiperidin-4-ol], the pIC50 was 4.76.

On to `Cc1nc(-c2ccc(CN3CCN(CCC(C)(C)O)CC3)cc2)cc2c1cc(-c1ccc(S(C)(=O)=O)cc1)n2C` [Example 60, 4-(4-(4-(1,4-dimethyl-2-(4-(methylsulfonyl)phenyl)-1H-pyrrolo[3,2-c]pyridin-6-yl)benzyl)piperazin-1-yl)-2-methylbutan-2-ol], for which the negative-log IC50 (pIC50) is 5.34.

As usually defined, the pIC50 is the IC50 on a negative log10 scale, so that one unit is a factor of ten. Lower therefore signals a large IC50.
